Data set [1] has as its system RXFP1-BP (ectodomain of human RXFP1 fused to the single transmembrane and cytoplasmic region of CD8). Description: Competition binding with europium-labelled H2 relaxin in HEK-293T cells stably expressing RXFP1-BP. The following applies: 10 µM competing peptide; 1 nm europium-labeled H2 relaxin; whole cells, 96 well plates; triplicate points, 2 independent experiments. The source says:
Cell culture for ligand-receptor binding assays—Human embryonic kidney cells (HEK-293T) stably expressing RXFP1-BP ([Halls et al., 2005]) were used for competition binding experiments using europium-labelled H2 relaxin, as described ([Shabanpoor et al., 2012]). This construct contains the ectodomain of human RXFP1 fused to the single transmembrane and cytoplasmic region of CD8. This ectodomain-only construct has a higher affinity for single chain H2 relaxin peptides and is used as a surrogate assay for binding affinity. Assays were performed in whole cell 96 well plates assays with a single concentration of the europium-labeled H2 relaxin (1 nm) in the presence or absence of increasing concentrations of the competing peptides. Non-specific binding was assessed using 1 µM of serelaxin. Each concentration point was assessed in triplicate in 2 independent experiments. The binding data were analyzed using GraphPad Prism 9 and expressed as mean ± SEM. They were fitted using a one site binding model.

Data set [2] has as its system RXFP1. Description: ERK1/2 phosphorylation in TGF-β1-induced myofibroblasts from NIH-3T3 fibroblasts expressing RXFP1, Western blot. Type of data set: cell-based. The following applies: mouse myofibroblasts (TGF-β 48 h), 30 and 90 min, 3 independent experiments. The method, then:
Cell culture for ERK1/2 phosphorylation assay - The RXFP1 downstream ERK1/2 phosphorylation pathway was tested on myofibroblasts using a method based on that described by [Hossain et al. (2016)], with minor modifications. Mouse NIH-3T3 fibroblasts (ATCC, Manassas, VA, United States) expressing RXFP1 ([Sassoli et al., 2013]) were cultured in DMEM supplemented with 10% fetal bovine serum (FBS), 2 mm glutamine, 250 U/ml penicillin G and 250 μg/ml streptomycin, in a humidified atmosphere with 5% CO2 at 37°C. They were induced to myofibroblasts in DMEM containing 2% FBS and 2 ng/ml human TGF-β1 (PeproTech, Rocky Hill, NJ, United States) for 12, 24, 48 and 72 h ([Sassoli et al., 2013]). Myofibroblasts were then incubated for 30 or 90 min with either serelaxin (17 nM), or B7-33 (1.7 μM), or the H1 peptides 6 and 7 (1.7 μM), selected among those which had shown a minimal ability to bind RXFP1 in the competition binding experiments. Untreated myofibroblasts were used as controls. To verify fibroblast-to-myofibroblast transition and ERK1/2 phosphorylation, cells were lysed in cold buffer composed of (mM): 10 Tris/HCl pH 7.4, 10 NaCl, 1.5 MgCl2, 2 Na2EDTA, 1% Triton X-100, added with 10x Sigmafast Protease Inhibitor Cocktail tablets and […] Na3VO4 to inhibit endogenous phosphatases. Total protein content was measured spectrophotometrically using micro-BCA Protein Assay Kit (Pierce). Sixty μg of total proteins were electrophoresed by SDS–PAGE and blotted onto PVDF membranes (Millipore, Bedford, MA, United States). […] Specific bands were detected using appropriate peroxidase-labeled secondary antibodies (1:15,000; Vector, Burlingame, CA, United States) and enhanced chemiluminescent substrate (ECL, Sigma-Aldrich). […]
(In western blotting, separated proteins are transferred to a membrane and probed.)

Data set [3] deals with RXFP1. As to the kind of experiment: cAMP generation in human monocytic THP-1 cells (RXFP1 downstream pathway), Direct cAMP ELISA. Particulars: serelaxin 17 nm, 15 min, IBMX 100 μM, 3 independent experiments. In kind it is cell-based. The method, then: Cell culture for cAMP assay—The RXFP1 downstream cAMP pathway was tested on human monocytic THP-1 cells (ECACC, Salisbury, UK) cultured in suspension in RPMI medium containing 10% foetal bovine serum, 0.05 mm 2-mercaptoethanol, 250 U/ml penicillin G and 250 μg/ml streptomycin, in a 5% CO2 atmosphere at 37°C. Cells (5 × 10^5) were placed in a 24-well plate, added with IBMX (100 μM) to prevent cAMP catabolism and then incubated with the different stimulants. As positive controls, either serelaxin (17 nm) and B7-33 (17, 170, 1700 nm) were used. The H1 peptides 4, 6 and 7, selected among those which had shown a minimal ability to bind RXFP1 in the competition binding experiments, were also used at 17, 170 and 1700 nm final concentration. The cAMP assay was carried out 15 min after RXFP1 stimulation, coinciding with the second sustained cAMP surge ([Nguyen et al., 2003]; [Bani et al., 2007]). The adenylate cyclase activator forskolin (100 μM) was used to determine the maximal cAMP levels. Triplicate cAMP measurements were performed by a Direct cAMP ELISA Kit (Enzo, Milan, Italy). […] The values of cAMP were normalized by the amount of proteins, measured by the micro-BCA Protein Assay Kit (Pierce, IL, United States) and expressed as mg/ml. For statistical purposes, 3 independent experiments were performed.
On the technique in general: ELISA stands for enzyme-linked immunosorbent assay.

The conditions of data set [4]: i.v. administration; ref Chen et al., 1993; cited from earlier work. The protocol:
Since recombinant human H2 relaxin (RLX), later termed serelaxin, was made available as clinical-grade drug ([Stults et al., 1990]), several clinical trials have been performed to explore its therapeutic potential, particularly as cardiovascular and anti-fibrotic agent ([Bani 2020]; [Samuel and Bennett 2021]; [Sassoli et al., 2022]). The last RELAX-AHF-2 phase III trial was performed under the auspices of Novartis Europharm Ltd., owner of the serelaxin patent, to assess its efficacy in patients with heart failure. Regrettably, in spite of encouraging theoretical premises and pre-clinical evide ...

Data set [5] addresses RXFP1-BP (ectodomain of human RXFP1 fused to the single transmembrane and cytoplasmic region of CD8). As to the kind of experiment: competition binding with europium-labelled ligand on whole cells; whole cells in 96 well plates; HEK-293T stably expressing RXFP1-BP; single concentration of europium-labeled H2 relaxin (1 nm as printed) with or without increasing concentrations of the competing peptides; non-specific binding with 1 µM serelaxin; triplicates, 2 independent experiments; one site binding model.

As usually defined, the half-life is the time in which the quantity being followed falls by half.

Take “[Ser^10,22]Cyclo[LysN3 ^17, Pra^21]H1RLXB(1–23) [compound 7]”: the “competition of Eu-H2 relaxin binding” value in data set [1] is reported as approximately 20%. Also, the ERK1/2 phosphorylation result in the data set on RXFP1 [2] (peptide 1.7 μM) is “neither of the H1 peptides 6 and 7 were capable of reproducing the effects of the authentic hormone”.
Take “[Ser^10,22]Cyclo[Pra^17, LysN3 ^21]H1RLXB(1–23) [compound 6]”: the “competition of Eu-H2 relaxin binding” value in data set [1] was approximately 20%. Moreover, the ERK1/2 phosphorylation entry with RXFP1 [2] (peptide 1.7 μM) is “neither of the H1 peptides 6 and 7 were capable of reproducing the effects of the authentic hormone”.
As for serelaxin, the “elevation of cAMP” value with RXFP1 [3] is “statistically significant elevation of cAMP”. For the same substance, in data set [4], the half-life was approximately 2 h. Besides, the ERK1/2 phosphorylation result with RXFP1 [2] (serelaxin 17 nM) is “statistically significant increase in ERK1/2 phosphorylation”.
In turn, “[Ser10,22]Cyclo[LysN3 17, Pra21]H1RLXB(1-23) (peptide)” had a percent competition of Eu-H2 relaxin binding at 10 µM in data set [5] of 20%.
The same measure, in the same setting: the same measure for “[Ser10,22]Cyclo[Pra17, LysN3 21]H1RLXB(1-23) (peptide)”: 20%.
On to “[Ser^10,22]Cyclo[Pra^14, LysN3 ^18]H1RLXB(1–23) [compound 4]”, for which the “competition of Eu-H2 relaxin binding” value in data set [1] is reported as approximately 20%.

(Values after publication PMC9402926, “Synthetic short-chain peptide analogues of H1 relaxin lack affinity for the RXFP1 receptor and relaxin-like bioactivity. Clues to a better understanding of relaxin agonist design” (Frontiers in Pharmacology, 2022).)
